# According to patent publication US20230085307A1, “PYRIDAZINONE COMPOUND AND HERBICIDE” (NISSAN CHEMICAL CORPORATION, priority 2019, published 2023):
# Legend:
# lambsquarters [1] = test: Test Example 4: herbicidal effect by soil treatment (Table 19, symbol O); type: in vivo, lambsquarters (Chenopodium album); conditions: amount of applied herbicide 320 g/ha
# Summary of the method: (§1)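 In this soil treatment, the formulated compound reached the seeds only through the soil: seeds were buried about 1.5 cm deep in sterilized diluvial soil, then the diluted emulsion was sprayed over the surface. After three weeks at 25° C. to 30° C. in a greenhouse, effects were graded on criteria from an earlier test.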
# rice flat sedge = test: Test Example 3: herbicidal effect by foliage application, Wagner pot (Table 18, symbol E); type: in vivo, rice flat sedge (Cyperus iria)
# Summary of the method: (§2)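 Plants were sown in alluvial soil held under 0.1–0.5 cm standing water and grown 14 days in a greenhouse at 25–30 °C. An emulsifiable formulation, water-diluted to the set dose, was then sprayed onto the foliage, and effects were scored three weeks later using previously defined criteria.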
# barnyard grass [2] = test: Test Example 5: herbicidal effect by foliage application, plastic box (Table 20, symbol H); type: in vivo, barnyard grass (Echinochloa crus-galli)
# Summary of the method: (§3)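 Plants were sown into sterilized diluvial soil under about 1.5 cm cover and kept in a greenhouse at 25° C. to 30° C. Fourteen days on, foliage received an even spray of the diluted emulsion. Herbicidal or crop effect was judged three weeks afterwards.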
# lambsquarters [3] = test: Test Example 5: herbicidal effect by foliage application, plastic box (Table 20, symbol O); type: in vivo, lambsquarters (Chenopodium album)
# Summary of the method: as §3
# barnyard grass [4] = test: Test Example 4: herbicidal effect by soil treatment (Table 19, symbol H); type: in vivo, barnyard grass (Echinochloa crus-galli); conditions: amount of applied herbicide 320 g/ha
# Summary of the method: as §1
# persian speedwell [5] = test: Test Example 5: herbicidal effect by foliage application, plastic box (Table 20, symbol R); type: in vivo, Persian speedwell (Veronica persica)
# Summary of the method: as §3
# redroot pigweed [6] = test: Test Example 4: herbicidal effect by soil treatment (Table 19, symbol N); type: in vivo, redroot pigweed (Amaranthus retroflexus); conditions: amount of applied herbicide 320 g/ha
# Summary of the method: as §1
# windgrass [7] = test: Test Example 5: herbicidal effect by foliage application, plastic box (Table 20, symbol L); type: in vivo, windgrass (Apera spica-venti)
# Summary of the method: as §3
# southern crabgrass [8] = test: Test Example 5: herbicidal effect by foliage application, plastic box (Table 20, symbol F); type: in vivo, southern crabgrass (Digitaria ciliaris)
# Summary of the method: as §3
# velvetleaf [9] = test: Test Example 4: herbicidal effect by soil treatment (Table 19, symbol M); type: in vivo, velvetleaf (Abutilon theophrasti); conditions: amount of applied herbicide 320 g/ha
# Summary of the method: as §1
# chickweed [10] = test: Test Example 5: herbicidal effect by foliage application, plastic box (Table 20, symbol P); type: in vivo, common chickweed (Stellaria media)
# Summary of the method: as §3
# chickweed [11] = test: Test Example 4: herbicidal effect by soil treatment (Table 19, symbol P); type: in vivo, common chickweed (Stellaria media); conditions: amount of applied herbicide 320 g/ha
# Summary of the method: as §1
# Italian ryegrass [12] = test: Test Example 5: herbicidal effect by foliage application, plastic box (Table 20, symbol K); type: in vivo, Italian ryegrass (Lolium multiflorum)
# Summary of the method: as §3
# barnyard grass [13] = test: Test Example 3: herbicidal effect by foliage application, Wagner pot (Table 18, symbol H); type: in vivo, barnyard grass (Echinochloa crus-galli)
# Summary of the method: as §2
# southern crabgrass [14] = test: Test Example 4: herbicidal effect by soil treatment (Table 19, symbol F); type: in vivo, southern crabgrass (Digitaria ciliaris); conditions: amount of applied herbicide 320 g/ha
# Summary of the method: as §1
# Chinese sprangletop = test: Test Example 3: herbicidal effect by foliage application, Wagner pot (Table 18, symbol D); type: in vivo, chinese sprangletop (Leptochloa chinensis)
# Summary of the method: as §2
# velvetleaf [15] = test: Test Example 5: herbicidal effect by foliage application, plastic box (Table 20, symbol M); type: in vivo, velvetleaf (Abutilon theophrasti)
# Summary of the method: as §3
# wild oat [16] = test: Test Example 4: herbicidal effect by soil treatment (Table 19, symbol I); type: in vivo, wild oat (Avena fatua); conditions: amount of applied herbicide 320 g/ha
# Summary of the method: as §1
# green foxtail [17] = test: Test Example 4: herbicidal effect by soil treatment (Table 19, symbol G); type: in vivo, green foxtail (Setaria viridis); conditions: amount of applied herbicide 320 g/ha
# Summary of the method: as §1
# wild oat [18] = test: Test Example 5: herbicidal effect by foliage application, plastic box (Table 20, symbol I); type: in vivo, wild oat (Avena fatua)
# Summary of the method: as §3
# green foxtail [19] = test: Test Example 5: herbicidal effect by foliage application, plastic box (Table 20, symbol G); type: in vivo, green foxtail (Setaria viridis)
# Summary of the method: as §3
# redroot pigweed [20] = test: Test Example 5: herbicidal effect by foliage application, plastic box (Table 20, symbol N); type: in vivo, redroot pigweed (Amaranthus retroflexus)
# Summary of the method: as §3
# persian speedwell [21] = test: Test Example 4: herbicidal effect by soil treatment (Table 19, symbol R); type: in vivo, Persian speedwell (Veronica persica); conditions: amount of applied herbicide 320 g/ha
# Summary of the method: as §1
# Italian ryegrass [22] = test: Test Example 4: herbicidal effect by soil treatment (Table 19, symbol K); type: in vivo, Italian ryegrass (Lolium multiflorum); conditions: amount of applied herbicide 320 g/ha
# Summary of the method: as §1
# windgrass [23] = test: Test Example 4: herbicidal effect by soil treatment (Table 19, symbol L); type: in vivo, windgrass (Apera spica-venti); conditions: amount of applied herbicide 320 g/ha
# Summary of the method: as §1
# blackgrass = test: Test Example 5: herbicidal effect by foliage application, plastic box (Table 20, symbol J); type: in vivo, blackgrass (Alopecurus myosuroides)
# Summary of the method: as §3
# [24] = amount of applied herbicide 320 g/ha, foliage application after 14-day growth, evaluated three weeks after application
# [25] = amount of applied herbicide 320 g/ha
# [26] = foliage application, 320 g/ha, evaluated 3 weeks after application
smiles,measurement,setting,value
Cc1nn(C)c(=O)c(-c2c(-c3ccc4c(c3)OCCO4)sc3cc(F)c(F)cc23)c1O [5-037],"O: lambsquarters, herbicidal effect grade",lambsquarters [1],5 (Herbicidal rate of 90% or more (almost completely withered))
same,herbicidal effect on rice flat sedge (E),rice flat sedge; 320 g/ha,5 (Herbicidal rate of 90% or more (almost completely withered))
same,"Herbicidal effect by foliage application, H: barnyard grass",barnyard grass [2]; [24],0 (Herbicidal rate of 5% or less (almost no effect))
same,"Herbicidal effect by foliage application, O: lambsquarters",lambsquarters [3]; [24],5 (Herbicidal rate of 90% or more (almost completely withered))
same,"H: barnyard grass, herbicidal effect grade",barnyard grass [4],0 (Herbicidal rate of 5% or less (almost no effect))
same,"Herbicidal effect by foliage application, R: persian speedwell",persian speedwell [5]; [24],5 (Herbicidal rate of 90% or more (almost completely withered))
same,"N: redroot pigweed, herbicidal effect grade",redroot pigweed [6],4 (Herbicidal rate of 70% or more and less than 90%)
same,"Herbicidal effect by foliage application, L: windgrass",windgrass [7]; [24],0 (Herbicidal rate of 5% or less (almost no effect))
same,"Herbicidal effect by foliage application, F: southern crabgrass",southern crabgrass [8]; [24],0 (Herbicidal rate of 5% or less (almost no effect))
same,"M: velvetleaf, herbicidal effect grade",velvetleaf [9],5 (Herbicidal rate of 90% or more (almost completely withered))
same,"Herbicidal effect by foliage application, P: chickweed",chickweed [10]; [24],5 (Herbicidal rate of 90% or more (almost completely withered))
same,"P: chickweed, herbicidal effect grade",chickweed [11],0 (Herbicidal rate of 5% or less (almost no effect))
same,"Herbicidal effect by foliage application, K: Italian ryegrass",Italian ryegrass [12]; [24],0 (Herbicidal rate of 5% or less (almost no effect))
same,herbicidal effect on barnyard grass (H),barnyard grass [13]; 320 g/ha,4 (Herbicidal rate of 70% or more and less than 90%)
same,"F: southern crabgrass, herbicidal effect grade",southern crabgrass [14],0 (Herbicidal rate of 5% or less (almost no effect))
same,herbicidal effect on Chinese sprangletop (D),Chinese sprangletop; 320 g/ha,4 (Herbicidal rate of 70% or more and less than 90%)
same,"Herbicidal effect by foliage application, M: velvetleaf",velvetleaf [15]; [24],5 (Herbicidal rate of 90% or more (almost completely withered))
same,"I: wild oat, herbicidal effect grade",wild oat [16],0 (Herbicidal rate of 5% or less (almost no effect))
same,"G: green foxtail, herbicidal effect grade",green foxtail [17],0 (Herbicidal rate of 5% or less (almost no effect))
same,"Herbicidal effect by foliage application, I: wild oat",wild oat [18]; [24],0 (Herbicidal rate of 5% or less (almost no effect))
same,"Herbicidal effect by foliage application, G: green foxtail",green foxtail [19]; [24],0 (Herbicidal rate of 5% or less (almost no effect))
same,"Herbicidal effect by foliage application, N: redroot pigweed",redroot pigweed [20]; [24],5 (Herbicidal rate of 90% or more (almost completely withered))
same,"R: persian speedwell, herbicidal effect grade",persian speedwell [21],5 (Herbicidal rate of 90% or more (almost completely withered))
same,"K: Italian ryegrass, herbicidal effect grade",Italian ryegrass [22],0 (Herbicidal rate of 5% or less (almost no effect))
same,"L: windgrass, herbicidal effect grade",windgrass [23],0 (Herbicidal rate of 5% or less (almost no effect))
same,"Herbicidal effect by foliage application, J: blackgrass",blackgrass; [24],0 (Herbicidal rate of 5% or less (almost no effect))
COCc1ccc(-c2oc3ccc(C)cc3c2-c2c(O)c(C)nn(C)c2=O)cc1 [9-061],"O: lambsquarters, herbicidal effect grade",lambsquarters [1],5 (Herbicidal rate of 90% or more (almost completely withered))
same,"Herbicidal effect on E (rice flat sedge), foliage application",rice flat sedge; [25],5 (Herbicidal rate of 90% or more (almost completely withered))
same,H (barnyard grass) herbicidal effect grade,barnyard grass [2]; [26],5 (Herbicidal rate of 90% or more (almost completely withered))
same,O (lambsquarters) herbicidal effect grade,lambsquarters [3]; [26],5 (Herbicidal rate of 90% or more (almost completely withered))
same,"H: barnyard grass, herbicidal effect grade",barnyard grass [4],5 (Herbicidal rate of 90% or more (almost completely withered))
same,R (persian speedwell) herbicidal effect grade,persian speedwell [5]; [26],5 (Herbicidal rate of 90% or more (almost completely withered))
same,"N: redroot pigweed, herbicidal effect grade",redroot pigweed [6],5 (Herbicidal rate of 90% or more (almost completely withered))
same,L (windgrass) herbicidal effect grade,windgrass [7]; [26],4 (Herbicidal rate of 70% or more and less than 90%)
same,F (southern crabgrass) herbicidal effect grade,southern crabgrass [8]; [26],5 (Herbicidal rate of 90% or more (almost completely withered))
same,"M: velvetleaf, herbicidal effect grade",velvetleaf [9],4 (Herbicidal rate of 70% or more and less than 90%)
same,P (chickweed) herbicidal effect grade,chickweed [10]; [26],5 (Herbicidal rate of 90% or more (almost completely withered))
same,"P: chickweed, herbicidal effect grade",chickweed [11],4 (Herbicidal rate of 70% or more and less than 90%)
same,K (Italian ryegrass) herbicidal effect grade,Italian ryegrass [12]; [26],5 (Herbicidal rate of 90% or more (almost completely withered))
same,"Herbicidal effect on H (barnyard grass), foliage application",barnyard grass [13]; [25],5 (Herbicidal rate of 90% or more (almost completely withered))
same,"F: southern crabgrass, herbicidal effect grade",southern crabgrass [14],5 (Herbicidal rate of 90% or more (almost completely withered))
same,"Herbicidal effect on D (Chinese sprangletop), foliage application",Chinese sprangletop; [25],4 (Herbicidal rate of 70% or more and less than 90%)
same,M (velvetleaf) herbicidal effect grade,velvetleaf [15]; [26],5 (Herbicidal rate of 90% or more (almost completely withered))
same,"I: wild oat, herbicidal effect grade",wild oat [16],2 (Herbicidal rate of 20% or more and less than 40%)
same,"G: green foxtail, herbicidal effect grade",green foxtail [17],5 (Herbicidal rate of 90% or more (almost completely withered))
same,I (wild oat) herbicidal effect grade,wild oat [18]; [26],3 (Herbicidal rate of 40% or more and less than 70%)
same,G (green foxtail) herbicidal effect grade,green foxtail [19]; [26],5 (Herbicidal rate of 90% or more (almost completely withered))
same,N (redroot pigweed) herbicidal effect grade,redroot pigweed [20]; [26],5 (Herbicidal rate of 90% or more (almost completely withered))
same,"R: persian speedwell, herbicidal effect grade",persian speedwell [21],5 (Herbicidal rate of 90% or more (almost completely withered))
same,"K: Italian ryegrass, herbicidal effect grade",Italian ryegrass [22],5 (Herbicidal rate of 90% or more (almost completely withered))
same,"L: windgrass, herbicidal effect grade",windgrass [23],0 (Herbicidal rate of 5% or less (almost no effect))
same,J (blackgrass) herbicidal effect grade,blackgrass; [26],5 (Herbicidal rate of 90% or more (almost completely withered))
